System: dissected embryonated cotyledon (DEC) explants of sweet sorghum hybrid varieties Liotian 1, Lioza 7050A and Liao Ji Za 1
Assay: Regeneration of sorghum via organogenesis from dissected embryonated cotyledon (DEC) explants on stage 1-6 media
Assay type: cell-based, Sorghum bicolor (L.) Moench
Details: for phenolic exudates from the base of the shoot buds: added to stage 2 medium
Description: Seeds of sweet sorghum (Sorghum bicolor (L.) Moench) hybrid varieties Liotian 1, Lioza 7050A and Liao Ji Za 1 were obtained from Chinese National Center for Sorghum Improvement, Shenyang City, 110161, Liaoning Province, P.R. China. The viable seeds were washed in chlorohexidine surgical wash (two drops in 100 ml of sterile water) for five minutes and soaked in sterile water for two days at 4° C. in refrigerator. Later these imbibed seeds were further surface sterilized in 10% clorox solution (commercial bleach) for 10 minutes followed by washes with sterile water for five times. To ensure complete sterility, these seeds were rinsed again with 70% alcohol for 90 seconds and subsequently washed with sterile water three times before used as explants.
The radical tissues were completely removed from the dissected embryonated cotyledon (DEC) explants. After six weeks of culture, the SCPC from stage 1 medium were further injured and transferred to stage 2 medium (Table 1) and stage 3 medium (Table 1) at five and ten-day interval for shoot bud induction. Subsequently, the shoot buds developed on stage 3 medium were split into 8-10 clumps with each clumps containing three to five shoots and transferred to stage 4 medium (Table 1) for further shoot induction followed by stage 5 medium (Table 1) for shoot elongation at two-week intervals respectively. The elongated shoot clumps with 2-3 shoots (4 cm height) from stage 5 medium were transferred to stage 6 medium (Table 1) for root induction. The well developed and rooted plantlets were transferred for hardening after two weeks of culture.
The pH of the medium was adjusted to 5.8 with 1N NaOH or 1N HCl prior to the addition of 0.8% phytoagar (stages 1-5 media) or 0.25% phytogel (stage 6 medium) and sterilized by autoclaving at 121° C. for 20 minutes. Approximately 20 ml of sterilized medium was dispensed into sterilized Petri dish (90×15 mm size, plastic polycarbonate, Canada). The chemicals used for media preparations were of analytical grade (Duchefa Biochemie, Haarlem, The Netherlands and Sigma Aldrich, Inc., St Louis, USA). All the cultures were maintained at 25° C. 2° C. under white fluorescent tube lights, 16/8 h (light/dark) photoperiod period, light intensity of 25 μE m^−2s^−1 and with 55-60% relative humidity. The cultures were subcultured at two-week intervals during stage 1, five-day intervals in stages 2 and 3, followed by one-week intervals in stages 4 and 5, with no subculturing in stage 6.

SMILES | phenolic exudates from the base of the shoot buds | germination of embryos attached to the cotyledons (present in stage 1 medium) | also measured
O=C1O[C@H]([C@@H](O)CO)C(O)=C1O [Asc, ascorbic acid] | prevented these phenolic exudates |  | 
NCC(=O)O [L-glycine] | prevented these phenolic exudates |  | 
NC(=O)CC[C@H](N)C(=O)O [L-glutamine] |  | inhibited germination of embryos | 
O=C(O)[C@@H]1CCCN1 [proline, L-proline] |  | inhibited germination of embryos | 
O=[N+]([O-])[O-].[Ag+] [AgNO3] | prevented these phenolic exudates |  | 
O=C(O)Cc1c[nH]c2ccccc12 [IAA, indole 3-acetic acid] |  |  | root induction (in stage 6 medium, 5.7 μM): induced roots within one week
CC1=CC(=O)CC(C)(C)[C@@]1(O)/C=C/C(C)=C\C(=O)O [ABA, abscisic acid] |  | inhibited germination of embryos | 
O=C(O)COc1ccc(Cl)cc1Cl [2,4-D, 2,4-dichlorophenoxy acetic acid] |  |  | callus formation (present in stage 1 medium, 6.78 μM): induced callus formation

From US8431402B2, “Method of high frequency regeneration of Sorghum” (Temasek Life Sciences Laboratory Limited, priority 2008, dated 2013)
